We go through 15 compounds from US5314887A, “2-amino-1, 4-dihydropyridine derivatives with calcium agonist and alpha -antagonist activity” (The Du Pont Merck Pharmaceutical Company, priority 1992, dated 1994).

pEC50, pIC50: −log10 of the molar value.

In series [1] the test system is influx of calcium ions into cells. Particulars: background statement; cited from earlier work.
The test system of series [2] is guinea pig left atria. Nature of the series: Positive inotropic effect in guinea pig left atria. Particulars: Cavia porcellus; for pEC50: left atria paced at 2 Hz, Krebs bicarbonate, 37°, cumulative addition to maximum 10^-4, read-out: EC50 = concentration that increases DT (developed tension) by 50% above the control DT; for Emax: relative to Bay K8644, expressed in percent, read-out: Intrinsic Activity: ratio of the maximum effect of the test compound to that of Bay K8644. Here is the method: Guinea pigs are killed by cervical dislocation. The left atria are removed and mounted at 1 gm resting tension in tissue baths containing oxygenated Krebs bicarbonate solution which is kept at 37°. The left atria are electrically paced at 2 Hz with square wave pulses of 1 msec duration. The voltage is set at 1.5×threshold level.
After a one hour equilibration period, control values for developed tension (DT, gm) are recorded. Test compounds are then added to the baths, in a cumulative manner to a maximum concentration of 10^-4, to obtain a concentration-response curve. Treatment values of DT are obtained after the drug effect has reached a plateau and the exposure time for each concentration is 5-8 minutes. Percent change of the treatment value from the control value is calculated at each concentration of the test compound.
^a EC50 (M) = concentration that increases DT by 50% above the
^b Intrinsic Activity is a ratio of the maximum effect of the test
compound to that of Bay K8644 and expressed in percent.

Series [3] concerns the target T1, Ca^2+ channel (rat cardiac microsomes) (Rattus norvegicus, UniProt P22002).
T1 construct: The reaction mixture contained rat cardiac microsomes; from tissue; host or cells: rat heart (cardiac microsomes)
The experiment in a line: [3H]-Nitrendipine binding assay (affinity for calcium channels). Particulars: 0.5 nM [3H]-nitrendipine, Tris buffer, 60 minutes at 25°. Here is the method: [^3 H]-Nitrendipine binding assay was carried out according to the method described by G. T. Bolger, et al., Biochem. Biophys. Res. Comm. 104, 1604-1609 (1982). The reaction mixture contained rat cardiac microsomes (source of Ca^2+ channels), 0.5 nM [^3 H]-nitrendipinewith or without potential displacer in Tris buffer. The mixture was incubated for 60 minutes at 25° and subsequently terminated by rapid filtration through a glass fiber-filter. Membrane-bound [^3 H]-nitrendipine trapped in the filter was quantitated by scintillation counting. The inhibitory concentration (IC50) of potential displacer which gives 50% displacement of the total specifically bound [^3 H]-nitrendipine is presented as a measure of the affinity of such compound for the Ca^2+ channel.

Series [4] addresses alpha1-adrenoceptor (rat brain membranes). Nature of the series: [3H]-Prazosin binding assay (affinity for alpha1-adrenoceptors). Particulars: 0.2 nM [3H]-prazosin, partially purified rat brain membranes, Tris buffer, 60 minutes at 25°. On the procedure: The [^3 H]-prazosin binding assay was carried out according to the method described by Timmermans, P. B. M. W. M., Schoop, A. M. C., and Van Zwieten, P. A., Biochem. Pharmacol. 31, 899-905 (1982). The reaction mixture contained partially purified rat brain membranes (source of alpha1 -adrenoceptors), 0.2 nM [^3 H]-prazosin with or without potential displacer in Tris buffer. The mixture was incubated for 60 minutes at 25° and subsequently terminated by rapid filtration through glass fiber-filter. Receptor-bound [^3 H]-prazosin trapped in the filter was quantitated by scintillation counting. The inhibitory concentration (IC50) of potential displacer which gives 50% displacement of the total specifically bound [^3 H]-prazosin is presented as a measure of the affinity of such compound for the alpha1 -adrenoceptor.

T1 sequence (P22002 whole entry, other chains not shown): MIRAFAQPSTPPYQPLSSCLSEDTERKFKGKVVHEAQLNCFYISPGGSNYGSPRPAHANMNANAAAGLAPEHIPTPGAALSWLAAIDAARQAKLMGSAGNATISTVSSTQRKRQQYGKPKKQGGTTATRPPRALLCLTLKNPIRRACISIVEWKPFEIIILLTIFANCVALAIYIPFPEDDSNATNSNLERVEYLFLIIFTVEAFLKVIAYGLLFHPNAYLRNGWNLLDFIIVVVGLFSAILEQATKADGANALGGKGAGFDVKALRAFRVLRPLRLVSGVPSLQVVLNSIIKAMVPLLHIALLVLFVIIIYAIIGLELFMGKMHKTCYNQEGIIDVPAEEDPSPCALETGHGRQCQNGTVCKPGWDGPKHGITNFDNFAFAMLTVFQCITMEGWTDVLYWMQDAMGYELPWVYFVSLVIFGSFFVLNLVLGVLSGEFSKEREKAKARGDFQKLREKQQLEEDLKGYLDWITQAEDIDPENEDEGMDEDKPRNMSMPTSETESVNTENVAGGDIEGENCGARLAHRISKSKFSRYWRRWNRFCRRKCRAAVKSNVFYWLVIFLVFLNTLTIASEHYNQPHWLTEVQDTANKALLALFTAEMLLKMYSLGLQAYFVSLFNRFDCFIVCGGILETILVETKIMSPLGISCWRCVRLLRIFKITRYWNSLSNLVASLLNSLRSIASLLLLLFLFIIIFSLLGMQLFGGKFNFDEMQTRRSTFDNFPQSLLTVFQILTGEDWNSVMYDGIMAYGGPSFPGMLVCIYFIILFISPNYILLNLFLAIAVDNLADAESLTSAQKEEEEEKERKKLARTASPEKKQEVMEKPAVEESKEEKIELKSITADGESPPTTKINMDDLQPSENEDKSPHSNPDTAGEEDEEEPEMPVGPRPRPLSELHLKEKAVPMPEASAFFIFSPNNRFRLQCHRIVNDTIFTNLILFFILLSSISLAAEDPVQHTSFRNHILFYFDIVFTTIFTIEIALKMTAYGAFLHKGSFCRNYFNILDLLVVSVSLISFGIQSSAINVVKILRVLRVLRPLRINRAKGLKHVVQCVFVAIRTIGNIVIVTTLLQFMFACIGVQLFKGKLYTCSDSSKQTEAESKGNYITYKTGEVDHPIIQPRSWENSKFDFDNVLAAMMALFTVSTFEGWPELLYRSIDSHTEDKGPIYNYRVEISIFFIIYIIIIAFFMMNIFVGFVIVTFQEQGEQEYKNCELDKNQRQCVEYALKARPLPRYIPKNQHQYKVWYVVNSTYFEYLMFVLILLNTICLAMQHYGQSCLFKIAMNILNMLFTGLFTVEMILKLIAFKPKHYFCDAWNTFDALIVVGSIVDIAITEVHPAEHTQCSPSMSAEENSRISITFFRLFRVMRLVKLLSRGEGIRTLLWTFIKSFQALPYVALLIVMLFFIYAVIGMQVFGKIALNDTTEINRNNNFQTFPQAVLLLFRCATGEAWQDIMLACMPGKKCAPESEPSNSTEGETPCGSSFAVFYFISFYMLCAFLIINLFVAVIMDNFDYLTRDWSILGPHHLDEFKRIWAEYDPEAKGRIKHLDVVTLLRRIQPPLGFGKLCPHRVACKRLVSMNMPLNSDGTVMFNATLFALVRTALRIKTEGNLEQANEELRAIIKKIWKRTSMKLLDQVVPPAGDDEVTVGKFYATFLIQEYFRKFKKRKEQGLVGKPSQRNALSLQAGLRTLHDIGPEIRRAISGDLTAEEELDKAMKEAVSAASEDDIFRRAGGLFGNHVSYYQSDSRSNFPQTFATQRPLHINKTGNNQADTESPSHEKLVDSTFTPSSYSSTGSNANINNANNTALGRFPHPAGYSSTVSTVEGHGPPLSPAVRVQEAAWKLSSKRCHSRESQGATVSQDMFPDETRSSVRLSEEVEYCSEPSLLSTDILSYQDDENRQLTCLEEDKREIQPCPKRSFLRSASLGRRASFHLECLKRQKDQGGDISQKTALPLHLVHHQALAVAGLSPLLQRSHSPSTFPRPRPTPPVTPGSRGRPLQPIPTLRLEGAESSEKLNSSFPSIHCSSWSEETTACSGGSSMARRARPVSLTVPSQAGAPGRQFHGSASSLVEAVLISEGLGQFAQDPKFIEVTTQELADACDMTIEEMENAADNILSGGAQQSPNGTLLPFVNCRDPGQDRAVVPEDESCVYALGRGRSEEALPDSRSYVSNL
T1 sequence (P54290 25-944 partner limits assumed, other chains not shown): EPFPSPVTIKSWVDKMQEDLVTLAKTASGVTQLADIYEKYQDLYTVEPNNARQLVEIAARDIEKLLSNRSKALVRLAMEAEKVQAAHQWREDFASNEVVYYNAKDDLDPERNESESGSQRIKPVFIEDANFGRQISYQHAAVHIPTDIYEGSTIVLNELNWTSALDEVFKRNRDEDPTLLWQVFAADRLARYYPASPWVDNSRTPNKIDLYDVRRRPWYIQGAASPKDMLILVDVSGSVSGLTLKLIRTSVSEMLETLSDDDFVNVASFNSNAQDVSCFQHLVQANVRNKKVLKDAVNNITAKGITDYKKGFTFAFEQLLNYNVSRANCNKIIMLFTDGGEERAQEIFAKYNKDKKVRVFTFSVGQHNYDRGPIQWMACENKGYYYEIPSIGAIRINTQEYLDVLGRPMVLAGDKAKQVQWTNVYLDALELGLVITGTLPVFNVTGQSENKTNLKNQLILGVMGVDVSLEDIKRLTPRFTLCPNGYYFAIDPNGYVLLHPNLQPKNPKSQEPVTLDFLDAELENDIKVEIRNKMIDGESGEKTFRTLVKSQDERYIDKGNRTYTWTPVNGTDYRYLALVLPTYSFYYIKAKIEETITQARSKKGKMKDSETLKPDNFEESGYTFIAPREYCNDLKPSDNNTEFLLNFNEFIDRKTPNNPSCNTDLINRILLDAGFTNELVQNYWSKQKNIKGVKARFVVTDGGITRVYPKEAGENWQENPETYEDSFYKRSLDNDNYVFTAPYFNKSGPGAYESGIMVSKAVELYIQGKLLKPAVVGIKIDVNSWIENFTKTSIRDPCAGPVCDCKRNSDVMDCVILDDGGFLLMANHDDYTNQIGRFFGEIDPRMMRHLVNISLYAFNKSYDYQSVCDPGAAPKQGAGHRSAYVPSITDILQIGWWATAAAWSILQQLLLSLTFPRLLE
T1 sequence (P54290 945-1091 partner limits assumed, other chains not shown): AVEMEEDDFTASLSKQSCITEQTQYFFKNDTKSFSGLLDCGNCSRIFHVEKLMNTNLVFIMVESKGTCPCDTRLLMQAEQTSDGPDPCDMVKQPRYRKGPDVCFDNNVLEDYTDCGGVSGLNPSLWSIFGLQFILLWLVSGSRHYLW

For `COC(=O)C1=C(C)NC(C)=C([N+](=O)[O-])C1c1ccccc1C(F)(F)F` (stereo not shown) [Bay K8644], in series [1], the coronary vasoconstricting properties result is reported as “coronary vasoconstricting properties”; the “effect on calcium influx, inotropic and vasoconstrictor effects” value is “promote an influx of calcium ions into cells, thereby producing positive inotropic and vasoconstrictor effects”; the “potency as a calcium agonist relative to CGP 28392” value was “more than ten times as potent as CGP 28392”. In series [2], the pEC50 is 6.82 and the Emax worked out at 100%.
`CCOC(=O)C1=C(C)NC2=C(C(=O)OC2)C1c1ccccc1OC(F)F` (stereo not shown) [CGP 28392]: in series [1], the “effect on calcium influx, inotropic and vasoconstrictor effects” value was “promote an influx of calcium ions into cells, thereby producing positive inotropic and vasoconstrictor effects”.
As usually defined, the pIC50 is the IC50 on a negative log10 scale, so that one unit is a factor of ten. Consider `COC(=O)C1=C(N)NC(C)=C([N+](=O)[O-])C1c1ccccc1SCCCCN1CCN(c2ccccc2OC)CC1` (stereo not shown) [Example 1, 2-Amino-1,4-dihydro-4-(2-{4-[4-(2-methoxyphenyl)-1-piperazinyl]-butylthio}phenyl)-6-methyl-5-nitro-3-pyridinecarboxylic acid methyl ester], for which, in series [3], the negative logarithm of the IC50 (pIC50) was 6.28. Moreover, in series [2], the pEC50 was 6.26 and the Emax turned out to be 166%. In series [4], this compound had a pIC50 of 7.22.
With `COC(=O)C1=C(N)NC(C)=C([N+](=O)[O-])C1c1ccccc1[S+]([O-])CCCCN1CCN(c2ccccc2OC)CC1` (stereo not shown) [Example 2, 2-Amino-1,4-dihydro-4-(2-{4-[4-(2-methoxyphenyl)-1-piperazinyl]-butylsulfinyl}phenyl)-6-methyl-5-nitro-3-pyridinecarboxylic acid methyl ester], the pIC50 was 5.77 in series [3] and 7.96 in series [4]. Further, the pEC50 in series [2] was 5.24. In addition, the Emax in series [2] stood at 90%.
Take `COC(=O)C1=C(N)NC(C)=C([N+](=O)[O-])C1c1ccccc1OCCCCCN1CCN(c2ncccn2)CC1` (stereo not shown) [Example 3, 2-Amino-1,4-dihydro-4-(2-{5-[4-(2-pyrimidinyl)-1-piperazinyl]-pentyloxy}phenyl)-6-methyl-5-nitro-3-pyridinecarboxylic acid methyl ester]: the negative logarithm of the IC50 (pIC50) in series [3] is 6.03. Besides, in series [2], the pEC50 was 6.00 and the Emax is 170%. For the same compound, the pIC50 in series [4] is 6.80.
Take `COC(=O)C1=C(N)NC(C)=C([N+](=O)[O-])C1c1ccccc1OCCCCCN1CCN(c2ccccc2OC)CC1` (stereo not shown) [Example 4, 2-Amino-1,4-dihydro-4-(2-{5-[4-(2-methoxyphenyl)-1-piperazinyl]-pentyloxy}phenyl)-6-methyl-5-nitro-3-pyridinecarboxylic acid methyl ester]: the pIC50 in series [3] was 5.80. Further, in series [2], the pEC50 is 5.80 and the Emax came out at 128%. For the same compound, the pIC50 in series [4] is 5.47.
`COC(=O)C1=C(N)NC(C)=C([N+](=O)[O-])C1c1ccccc1S(=O)(=O)CCCCN1CCN(c2ccccc2OC)CC1` (stereo not shown) [Example 5, 2-Amino-1,4-dihydro-4-(2-{4-[4-(2-methoxyphenyl)-1-piperazinyl]-butylsulfonyl}phenyl)-6-methyl-5-nitro-3-pyridinecarboxylic acid methyl ester]: in series [3], the pIC50 is 6.41. Moreover, in series [2], the pEC50 is 5.82 and the Emax was 119%. Besides, the pIC50 in series [4] was 7.22.
Turning to `COC(=O)C1=C(N)NC(C)=C([N+](=O)[O-])C1c1ccccc1SCCCCN1CCN(c2ncccn2)CC1` (stereo not shown) [Example 6], the pIC50 in series [3] was 6.40. For the same compound, in series [2], the pEC50 is 7.33 and the Emax turned out to be 113%. Further, the pIC50 in series [4] was 5.35.
As for `COC(=O)C1=C(N)NC(C)=C([N+](=O)[O-])C1c1ccccc1SCCCCN1CCC(C(=O)c2ccc(F)cc2)CC1` (stereo not shown) [Example 7], in series [3], the pIC50 is 6.82. Further, in series [2], the pEC50 is 5.02 and the Emax worked out at 112%. The compound also gave a pIC50 in series [4] of 6.82.
Turning to `COC(=O)C1=C(N)NC(C)=C([N+](=O)[O-])C1c1ccccc1[S+]([O-])CCCCN1CCN(c2ncccn2)CC1` (stereo not shown) [Example 8, 2-Amino-1,4-dihydro-4-(2-{4-[4-(2-pyrimidinyl)-1-piperazinyl]-butylsulfinyl}phenyl)-6-methyl-5-nitro-3-pyridinecarboxylic acid methyl ester], in series [3], the pIC50 is 5.64. Also, in series [2], the pEC50 was 6.30 and the Emax amounted to 254%. The compound further had a pIC50 in series [4] of 5.62.
Taken in the same sequence, the figures for `COC(=O)C1=C(N)NC(C)=C([N+](=O)[O-])C1c1ccccc1[S+]([O-])CCCCN1CCC(C(=O)c2ccc(F)cc2)CC1` (stereo not shown) [Example 9] were 5.62, 5.00, 56% and 6.82.
As for `COC(=O)C1=C(N)NC(C)=C([N+](=O)[O-])C1c1ccccc1SCCCN1CCN(c2ccccc2OC)CC1` (stereo not shown) [Example 10], the pIC50 in series [3] was 6.52; in series [4], 7.10. Also, the pEC50 in series [2] was 5.46. Besides, in series [2], the Emax came to 115%.
On to `COC(=O)C1=C(N)NC(C)=C([N+](=O)[O-])C1c1ccccc1SCCCCCN1CCN(c2ccccc2OC)CC1` (stereo not shown) [Example 11], for which the pIC50 in series [3] is 6.62; in series [4], 7.38. Besides, the pEC50 in series [2] is 5.62. Further, the Emax in series [2] was found to be 112%.
As to `COC(=O)C1=C(N)NC(C)=C([N+](=O)[O-])C1c1ccccc1[S+]([O-])CCCN1CCN(c2ccccc2OC)CC1` (stereo not shown) [Example 12], the pIC50 in series [3] was 6.21. Further, in series [2], the pEC50 is less than 4.00 and the Emax is 35%. Also, the pIC50 in series [4] is 7.28.
For the compound `COC(=O)C1=C(N)NC(C)=C([N+](=O)[O-])C1c1ccccc1[S+]([O-])CCCCCN1CCN(c2ccccc2OC)CC1` (stereo not shown) [Example 13], in series [3], the pIC50 is 5.89. In series [2], the pEC50 was 5.28 and the Emax stood at 119%. This compound gave a pIC50 in series [4] of 7.60.
